A short description of this series: recombinant barcode read abundance after kanamycin selection (control-corrected) (log10(CPM+1)); higher = more efficient recombination; sequences stand for … in AGTGCAGAGAAAATCGGCCAGTTTTCTCTGCCTGCAGTCCGCATGCCGT…AGATTTATGCAGCGGACTGCCTTTCTCCCAAAGTGATAAACCGGACAGTATCATGGACCGGTTTTCCCGGTAATCCGTATTTGCAAGGTTGGTTTCACT; site = the 11-nt target. Put shortly: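 Each value is log10(CPM+1). It describes recombination efficiency, taken as averaged, control-corrected counts per million of barcodes at recombinant junctions. The pooled E. coli library paired targets with IS621 bridge RNA target-binding loops, was co-electroporated with a donor plasmid, and was plated twice on chloramphenicol/ampicillin LB agar (control) and twice on chloramphenicol/ampicillin/kanamycin containing 0.1 mM IPTG.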
For the sequence “GGGCCTACTTGGGTTCTAACCTGTTGCTT (site GGGCCTACTGA)”, the “recombinant barcode read abundance (log10)” value came out at 0.255. With “GGGCCTACTTGGGTTCTAACCTGTTGCTT (site GGGCCTACTTA)”, the “recombinant barcode read abundance (log10)” value came out at 0.063. The figure for “GGGCCTTCTTGGGTTCTAACCTGTTGCAT (site GGGACTTCTAT)” is 0.24; for “GGGCCTTCTTGGGTTCTAACCTGTTGCAT (site GGGCCTTCTAT)” it is 1.07; for “GGGCCTTCTTGGGTTCTAACCTGTTGCAT (site GGGGCTTCTAT)” it is 0.31.

In the case of “GGGCCTTCTTGGGTTCTAACCTGTTGCAT (site GGGTCTTCTAT)”, the “recombinant barcode read abundance (log10)” value is 0.0646. Consider “GGGGACCCTTGGGTTCTAACCTGTTGCGA (site GGGGACCCTAC)”, for which the “recombinant barcode read abundance (log10)” value is 1.74. The same measure for “GGGGACCCTTGGGTTCTAACCTGTTGCGA (site GGGGACCCTCC)”: 0.877; for “GGGGACCCTTGGGTTCTAACCTGTTGCGA (site GGGGACCCTGC)”: 0.247. The same measure for “GGGGACCCTTGGGTTCTAACCTGTTGCGA (site GGGGACCCTTC)”: 2.48. The same measure for “GGGGACCCTTGGGTTCTAACCTGTTGCGC (site GGGGACCCTAC)”: 2.24; for “GGGGACCCTTGGGTTCTAACCTGTTGCGC (site GGGGACCCTCC)”: 0.0282; for “GGGGACCCTTGGGTTCTAACCTGTTGCGC (site GGGGACCCTGC)”: 3.3.

In the case of “GGGGACCCTTGGGTTCTAACCTGTTGCGC (site GGGGACCCTTC)”, the “recombinant barcode read abundance (log10)” value worked out at 0.283. Take “GGGGAGCCTTGGGTTCTAACCTGTTGCGG (site GGGGAGCCTCC)”: the “recombinant barcode read abundance (log10)” value was 2.38. Consider “GGGGAGCCTTGGGTTCTAACCTGTTGCGG (site GGGGATCCTTC)”, for which the “recombinant barcode read abundance (log10)” value turned out to be 0.335. For the sequence “GGGGCACCTTGGGTTCTAACCTGTTGCGT (site GGGGCACCTAA)”, the “recombinant barcode read abundance (log10)” value was determined as 1.16. The figure for “GGGGCACCTTGGGTTCTAACCTGTTGCGT (site GGGGCACCTAC)” is 3.72; for “GGGGCACCTTGGGTTCTAACCTGTTGCGT (site GGGGCACCTAG)” it is 0.492; for “GGGGCACCTTGGGTTCTAACCTGTTGCGT (site GGGGCACCTAT)” it is 2.61. Consider “GGGGCATCTTGGGTTCTAACCTGTTGCCT (site GGGACATCTAG)”, for which the “recombinant barcode read abundance (log10)” value was 0.105.

On to “GGGGCATCTTGGGTTCTAACCTGTTGCCT (site GGGGCATCTAG)”, for which the “recombinant barcode read abundance (log10)” value was 0.0863. Take “GGGGCATCTTGGGTTCTAACCTGTTGCTT (site GGGGCATCTAA)”: the “recombinant barcode read abundance (log10)” value came to 0.95.

As for “GGGGCATCTTGGGTTCTAACCTGTTGCTT (site GGGGCCTCTAA)”, the “recombinant barcode read abundance (log10)” value turned out to be 0.0583. Consider “GGGGCATCTTGGGTTCTAACCTGTTGCTT (site GGGGCGTCTAA)”, for which the “recombinant barcode read abundance (log10)” value was 0.0873. Take “GGGGCATCTTGGGTTCTAACCTGTTGCTT (site GGGGCTTCTAA)”: the “recombinant barcode read abundance (log10)” value worked out at 0.0362. The same measure for “GGGGCCTCTTGGGTTCTAACCTGTTGCAG (site GGGGCCTCTCT)”: 3.05. The same measure for “GGGGCCTCTTGGGTTCTAACCTGTTGCAG (site GGTGCCTCTAT)”: 0.213; for “GGGGCGACTTGGGTTCTAACCTGTTGCCT (site GGGGCGACTAG)”: 0.358; for “GGGGCGACTTGGGTTCTAACCTGTTGCCT (site GGGGCGCCTAG)”: 0.0568. With “GGGGCGACTTGGGTTCTAACCTGTTGCCT (site GGGGCGGCTAG)”, the “recombinant barcode read abundance (log10)” value was 0.13. As for “GGGGCGACTTGGGTTCTAACCTGTTGCCT (site GGGGCGTCTAG)”, the “recombinant barcode read abundance (log10)” value stood at 0.0176. On to “GGGGCTTCTTGGGTTCTAACCTGTTGCAT (site GGGACTTCTAT)”, for which the “recombinant barcode read abundance (log10)” value came out at 0.158. The same measure for “GGGGCTTCTTGGGTTCTAACCTGTTGCAT (site GGGCCTTCTAT)”: 0.0416; for “GGGGCTTCTTGGGTTCTAACCTGTTGCAT (site GGGGCTTCTAT)”: 2.07; for “GGGGCTTCTTGGGTTCTAACCTGTTGCAT (site GGGTCTTCTAT)”: 0.27.

Turning to “GGGGTTCCTTGGGTTCTAACCTGTTGCCT (site GGGGTTCCTAA)”, the “recombinant barcode read abundance (log10)” value worked out at 0.223. Turning to “GGGGTTCCTTGGGTTCTAACCTGTTGCCT (site GGGGTTCCTAC)”, the “recombinant barcode read abundance (log10)” value came out at 1.56.

As to “GGGGTTCCTTGGGTTCTAACCTGTTGCCT (site GGGGTTCCTAG)”, the “recombinant barcode read abundance (log10)” value is 2.3.

In the case of “GGGGTTCCTTGGGTTCTAACCTGTTGCCT (site GGGGTTCCTAT)”, the “recombinant barcode read abundance (log10)” value worked out at 1.42. On to “GGGGTTCCTTGGGTTCTAACCTGTTGCGT (site GGGGTTCCTAA)”, for which the “recombinant barcode read abundance (log10)” value was determined as 0.321. On to “GGGGTTCCTTGGGTTCTAACCTGTTGCGT (site GGGGTTCCTAC)”, for which the “recombinant barcode read abundance (log10)” value turned out to be 3.32. The figure for “GGGGTTCCTTGGGTTCTAACCTGTTGCGT (site GGGGTTCCTAG)” is 1.35; for “GGGGTTCCTTGGGTTCTAACCTGTTGCGT (site GGGGTTCCTAT)” it is 1.85. As to “GGGGTTCCTTGGGTTCTAACCTGTTGCTT (site GGGGTTCCTAA)”, the “recombinant barcode read abundance (log10)” value turned out to be 1.52.

For “GGGGTTCCTTGGGTTCTAACCTGTTGCTT (site GGGGTTCCTAC)”, the “recombinant barcode read abundance (log10)” value was determined as 1.89. The figure for “GGGGTTCCTTGGGTTCTAACCTGTTGCTT (site GGGGTTCCTAG)” is 1.36; for “GGGGTTCCTTGGGTTCTAACCTGTTGCTT (site GGGGTTCCTAT)” it is 1.17; for “GGGTAATCTTGGGTTCTAACCTGTTGCCT (site GGGTAAACTAG)” it is 0.27. The same measure for “GGGTAATCTTGGGTTCTAACCTGTTGCCT (site GGGTAATCTAG)”: 0.725; for “GGGTCCACTTGGGTTCTAACCTGTTGCCT (site GGGTCCACTAA)”: 0.481.

In the case of “GGGTCCACTTGGGTTCTAACCTGTTGCCT (site GGGTCCACTAC)”, the “recombinant barcode read abundance (log10)” value was found to be 0.287. Regarding “GGGTCCACTTGGGTTCTAACCTGTTGCCT (site GGGTCCACTAG)”, the “recombinant barcode read abundance (log10)” value was found to be 2.5.

Regarding “GGGTCCACTTGGGTTCTAACCTGTTGCCT (site GGGTCCACTAT)”, the “recombinant barcode read abundance (log10)” value worked out at 0.358.

In the case of “GGGTCCACTTGGGTTCTAACCTGTTGCTT (site GGGTCCACTAA)”, the “recombinant barcode read abundance (log10)” value was 1.51. In the case of “GGGTCCACTTGGGTTCTAACCTGTTGCTT (site GGGTCCACTAC)”, the “recombinant barcode read abundance (log10)” value was determined as 0.139. As for “GGGTCCACTTGGGTTCTAACCTGTTGCTT (site GGGTCCACTAG)”, the “recombinant barcode read abundance (log10)” value was found to be 1.11. The figure for “GGGTCCACTTGGGTTCTAACCTGTTGCTT (site GGGTCCACTAT)” is 0.714; for “GGGTTCCCTTGGGTTCTAACCTGTTGCCT (site GGGTTCCCTAG)” it is 2.11.

These data come from the supplement of paper PMC11208160.
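Also: IS621 recombinase and bridge RNA in Escherichia coli cells.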
